Measurements as given in US6984649B1, “Pyridine derivatives” (Bayer Aktiengesellschaft, priority 2000, dated 2006).
Like-named read-outs stand apart in the source and are kept apart here.

Test system: A549 human lung epithelium cell line
Experiment: RANTES production in response to TNF-α from A549 cells
Format: cell-based
Conditions: 100 ng/ml TNF-α, read-out: Cellular activity grade (A549) (Cellular IC50)
Procedure, shortened: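 RANTES released into supernatant was measured by DELFIA-type sandwich immunoassay, Eu-labelled detection antibody, 340 nm excitation/615 nm emission, recombinant RANTES standard. Beforehand, cells seeded at 4×10^4/well received test compound (1% DMSO) for 1 h at 37 °C, followed by 24 h TNF-α (100 ng/ml) stimulation.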

Row | IC50 (Homo sapiens, A549, A549 cells) [nM] | IC50 (A549 cells) [nM] | SMILES
1 | < 1000 |  | CC(C)OC(=O)NCc1c(C2CCCNC2)cc(-c2c(O)cccc2OCC2CC2)nc1N (centres unmarked) [Example 23-08]
2 | < 1000 |  | N#Cc1c(C2CCCNC2)cc(-c2c(O)cccc2OCc2ccccc2F)nc1N (centres unmarked) [Example 2-25]
3 | > 10000 |  | COc1ccc(CN2CCCC(c3cc(-c4c(O)cccc4OCC4CC4)nc(N)c3C#N)C2)cc1 (centres unmarked) [Example 3-08]
4 | < 1000 |  | CCCOc1cccc(O)c1-c1cc(C2CCNCC2)c2c(n1)NC(=O)OC2 [Example 18-14]
5 | < 1000 |  | CC(C)CCCOc1cccc(O)c1-c1cc(C2CCNCC2)c2c(n1)NC(=O)OC2 [Example 18-15]
6 | < 1000 |  | N#Cc1c(C2CCCNC2)cc(-c2c(O)cccc2OCc2ccc(Br)cc2)nc1N (centres unmarked) [Example 2-24]
7 | < 1000 |  | CC(C)OC(=O)N1Cc2c(C3CCCNC3)cc(-c3c(O)cccc3OCC3CC3)nc2NC1=O (centres unmarked) [Example 24-05]
8 |  | < 1000 | N#Cc1c(C2CCCNC2)cc(-c2c(O)cccc2OCc2ccccc2F)nc1N (centres unmarked) [Example 2-37]
9 | 1000 to 10000 |  | O=C1Nc2nc(-c3c(O)cccc3OCc3ccccc3)cc(C3CCNCC3)c2CO1 [Example 18-16]
10 | < 1000 |  | CN(C)C(=O)NCc1c(C2CCCNC2)cc(-c2c(O)cccc2OCC2CC2)nc1N (centres unmarked) [Example 23-11]
11 | < 1000 |  | CC(C)COC(=O)NCc1c(C2CCCNC2)cc(-c2c(O)cccc2OCC2CC2)nc1N (centres unmarked) [Example 23-09]
12 | > 10000 |  | O=C1Nc2nc(-c3c(O)cccc3O)cc(C3CCNCC3)c2CO1 [Example 18-12]
13 | < 1000 |  | CC(C)(C)COC(=O)N1Cc2c(C3CCCNC3)cc(-c3c(O)cccc3OCC3CC3)nc2NC1=O (centres unmarked) [Example 24-07]
14 | 1000 to 10000 |  | Nc1nc(-c2c(O)cccc2OCc2ccccc2)cc(C2CCCNC2)c1CO (centres unmarked) [Example 12-02]
15 | < 1000 |  | NC(=O)NCc1c(C2CCCNC2)cc(-c2c(O)cccc2OCC2CC2)nc1N (centres unmarked) [Example 23-13]
16 | < 1000 |  | N#Cc1c(C2CCCNC2)cc(-c2c(O)cccc2OCCc2ccccc2)nc1N (centres unmarked) [Example 2-41]
17 | < 1000 |  | CC(=O)NCc1c(C2CCNCC2)cc(-c2c(O)cccc2OCC2CC2)nc1N [Example 23-07]
18 | < 1000 |  | N#Cc1c(C2CCCNC2)cc(-c2c(O)cccc2OCc2cccc(F)c2)nc1N (centres unmarked) [Example 2-27]
19 | < 1000 |  | N#Cc1c(C2CCCNC2)cc(-c2c(O)cccc2OCc2ccc(F)cc2)nc1N (centres unmarked) [Example 2-28]
20 | < 1000 |  | COC(=O)c1ccc(COc2cccc(O)c2-c2cc(C3CCCNC3)c(C#N)c(N)n2)cc1 (centres unmarked) [Example 2-30]
21 | < 1000 |  | N#Cc1c(C2CCCNC2)cc(-c2c(O)cccc2OCc2cccnc2)nc1N (centres unmarked) [Example 2-43]
22 | < 1000 |  | O=C1Nc2nc(-c3c(O)cccc3F)cc(C3CCCNC3)c2CO1 (centres unmarked) [Example 18-07]
23 | 1000 to 10000 |  | COc1ccc(CN2CCCC(c3cc(-c4c(O)cccc4O)nc(N)c3C#N)C2)cc1 (centres unmarked) [Example 3-07]
24 | 1000 to 10000 |  | N#Cc1c(C2CCCNC2)cc(-c2c(O)cccc2OCc2ccccc2-c2ccccc2)nc1N (centres unmarked) [Example 2-22]
25 | < 1000 |  | CC(C)(C)c1ccc(COc2cccc(O)c2-c2cc(C3CCCNC3)c(C#N)c(N)n2)cc1 (centres unmarked) [Example 2-31]
26 | 1000 to 10000 |  | N#Cc1c(C2CCCNC2)cc(-c2c(O)cccc2OCc2ccc(-c3ccccc3)cc2)nc1N (centres unmarked) [Example 2-33]
27 | < 1000 |  | CCCNC(=O)NCc1c(C2CCCNC2)cc(-c2c(O)cccc2OCC2CC2)nc1N (centres unmarked) [Example 23-12]

Row | IC50 (Homo sapiens, A549, A549 cells) [nM] | IC50 (A549 cells) [nM] | SMILES
28 | 1000 to 10000 |  | Cc1ccccc1COc1cccc(O)c1-c1cc(C2CCCNC2)c(C#N)c(N)n1 (centres unmarked) [Example 2-06]
29 | < 1000 |  | O=C1Nc2nc(-c3ncccc3O)cc(C3CCCNC3)c2CO1 (centres unmarked) [Example 18-08]
30 | 1000 to 10000 |  | N#Cc1c(C2CCCNC2)cc(-c2c(O)cccc2OCc2csc3ccc(Cl)cc23)nc1N (centres unmarked) [Example 2-47]
31 | < 1000 |  | O=C1Nc2nc(-c3c(O)cccc3OCC3CC3)cc(C3CCNCC3)c2CO1 [Example 18-13]
32 | 1000 to 10000 |  | N#Cc1c(C2CCCNC2)cc(-c2c(O)cccc2OCc2ccccn2)nc1N (centres unmarked) [Example 2-42]
33 |  | < 1000 | N#Cc1c(C2CCCNC2)cc(-c2c(O)cccc2OCc2ccc(Br)cc2)nc1N (centres unmarked) [Example 2-39]
34 | < 1000 |  | CC(C)COC(=O)N1Cc2c(C3CCCNC3)cc(-c3c(O)cccc3OCC3CC3)nc2NC1=O (centres unmarked) [Example 24-06]
35 | < 1000 |  | CN(C)C(=O)N1Cc2c(C3CCCNC3)cc(-c3c(O)cccc3OCC3CC3)nc2NC1=O (centres unmarked) [Example 24-08]
36 | 1000 to 10000 |  | N#Cc1c(C2CCCNC2)cc(-c2c(O)cccc2OCCC(c2ccccc2)c2ccccc2)nc1N (centres unmarked) [Example 2-46]
37 | < 1000 |  | COc1cccc(O)c1-c1cc(C2CCCNC2)c(C#N)c(N)n1 (centres unmarked) [Example 2-57]
38 | 1000 to 10000 |  | N#Cc1c(C2CCCNC2)cc(-c2c(O)cccc2OCc2cccc3ccccc23)nc1N (centres unmarked) [Example 2-32]
39 | < 1000 |  | N#Cc1c(C2CCCNC2)cc(-c2c(O)cccc2OCc2ccncc2)nc1N (centres unmarked) [Example 2-44]
40 | < 1000 |  | N#Cc1c(C2CCCNC2)cc(-c2c(O)cccc2OCC2CCCCC2)nc1N (centres unmarked) [Example 2-53]
41 | 1000 to 10000 |  | N#Cc1c(C2CCCN(CCc3ccccc3)C2)cc(-c2ccccc2O)nc1N (centres unmarked) [Example 3-06]
42 | 1000 to 10000 |  | CCCN1CCCC(c2cc(-c3ccccc3O)nc(N)c2C#N)C1 (centres unmarked) [Example 3-04]
43 | < 1000 |  | Nc1nc(-c2c(O)cccc2OCC2CC2)cc(C2CCCNC2)c1CNC(=S)Nc1ccccc1 (centres unmarked) [Example 23-15]
44 | < 1000 |  | N#Cc1c(C2CCCN(Cc3ccccc3)C2)cc(-c2ccccc2O)nc1N (centres unmarked) [Example 3-05]
45 |  | < 1000 | COC(=O)c1ccc(COc2cccc(O)c2-c2cc(C3CCCNC3)c(C#N)c(N)n2)cc1 (centres unmarked) [Example 2-38]
46 | < 1000 |  | Nc1nc(-c2c(O)cccc2OCC2CC2)cc(C2CCNCC2)c1CO [Example 12-05]
47 | < 1000 |  | N#Cc1c(C2CCNCC2)cc(-c2c(O)cccc2OCCc2ccccc2)nc1N [Example 2-52]
48 | < 1000 |  | CN1CCCC(c2cc(-c3ccccc3O)nc(N)c2C#N)C1 (centres unmarked) [Example 3-03]
49 |  | < 1000 | Cc1ccc(COc2cccc(O)c2-c2cc(C3CCCNC3)c(C#N)c(N)n2)cc1 (centres unmarked) [Example 2-35]
50 | 1000 to 10000 |  | N#Cc1c(C2CCCNC2)cc(-c2c(O)cccc2OCc2ccc(Cl)c(Cl)c2)nc1N (centres unmarked) [Example 2-05]
51 | < 1000 |  | CCCCCOc1cccc(O)c1-c1cc(C2CCCNC2)c(C#N)c(N)n1 (centres unmarked) [Example 2-60]
52 | < 1000 |  | Cc1cc(-c2c(O)cccc2OCC2CC2)nc2c1COC(=O)N2 [Example 18-09]
53 | < 1000 |  | CCCOc1cccc(O)c1-c1cc(C2CCCNC2)c(C#N)c(N)n1 (centres unmarked) [Example 2-55]
54 | < 1000 |  | CCOc1cccc(O)c1-c1cc(C2CCCNC2)c(C#N)c(N)n1 (centres unmarked) [Example 2-58]

Row | IC50 (Homo sapiens, A549, A549 cells) [nM] | IC50 (A549 cells) [nM] | SMILES
55 | < 1000 |  | N#Cc1c(C2CCCNC2)cc(-c2c(O)cccc2OCc2ccc(F)cc2F)nc1N (centres unmarked) [Example 2-26]
56 | < 1000 |  | CC(C)(C)COc1cccc(O)c1-c1cc(C2CCCNC2)c(CO)c(N)n1 (centres unmarked) [Example 12-04]
57 | < 1000 |  | O=C1Nc2nc(-c3c(O)cccc3OCc3ccccc3)cc(C3CCCNC3)c2CO1 (centres unmarked) [Example 18-10]
58 | < 1000 |  | CC(=O)NCc1c(C2CCCNC2)cc(-c2ccccc2O)nc1N (centres unmarked) [Example 23-04]
59 | < 1000 |  | C=CCOc1cccc(O)c1-c1cc(C2CCCNC2)c(C#N)c(N)n1 (centres unmarked) [Example 2-56]
60 | 1000 to 10000 |  | N#Cc1c(C2CCNCC2)cc(-c2c(O)cccc2OCc2ccccc2)nc1N [Example 2-23]
61 | 1000 to 10000 |  | CCC(=O)NCc1c(C2CCCNC2)cc(-c2ccccc2O)nc1N (centres unmarked) [Example 23-06]
62 | < 1000 |  | Nc1nc(-c2c(O)cccc2OCC2CC2)cc(C2CCCNC2)c1CNC(=O)Nc1ccccc1 (centres unmarked) [Example 23-14]
63 | < 1000 |  | CCCOc1cccc(O)c1-c1cc(C2CCCNC2)c2c(n1)NC(=O)OC2 (centres unmarked) [Example 18-11]
64 | < 1000 |  | CC(C)CCCOc1cccc(O)c1-c1cc(C2CCNCC2)c(CO)c(N)n1 [Example 12-07]
65 | < 1000 |  | Cc1cc(COc2cccc(O)c2-c2cc(C3CCCNC3)c(C#N)c(N)n2)no1 (centres unmarked) [Example 2-49]
66 |  | < 1000 | N#Cc1c(C2CCCNC2)cc(-c2c(O)cccc2OCc2ccc(C(F)(F)F)cc2)nc1N (centres unmarked) [Example 2-36]
67 | < 1000 |  | N#Cc1c(C2CCCNC2)cc(-c2c(O)cccc2OCc2ccc3ccccc3n2)nc1N (centres unmarked) [Example 2-45]
68 | < 1000 |  | N#Cc1c(C2CCCNC2)cc(-c2c(O)cccc2OCC(=O)c2ccccc2)nc1N (centres unmarked) [Example 2-51]
69 | < 1000 |  | Nc1nc(-c2ccccc2O)cc(C2CCCNC2)c1CNC(=O)C1CC1 (centres unmarked) [Example 23-05]
70 | < 1000 |  | N#Cc1c(C2CCCNC2)cc(-c2c(O)cccc2OCCCc2ccccc2)nc1N (centres unmarked) [Example 2-50]
71 | 1000 to 10000 |  | N#Cc1c(C2CCCNC2)cc(-c2c(O)cccc2OCc2ccc(F)c(F)c2)nc1N (centres unmarked) [Example 2-29]
72 | < 1000 |  | NC(=O)N1Cc2c(C3CCCNC3)cc(-c3c(O)cccc3OCC3CC3)nc2NC1=O (centres unmarked) [Example 24-10]
73 | < 1000 |  | CC(C)(C)COC(=O)NCc1c(C2CCCNC2)cc(-c2c(O)cccc2OCC2CC2)nc1N (centres unmarked) [Example 23-10]
74 | < 1000 |  | CCCOc1cccc(O)c1-c1cc(C2CCCNC2)c(CO)c(N)n1 (centres unmarked) [Example 12-03]
75 | < 1000 |  | CC(C)Oc1cccc(O)c1-c1cc(C2CCCNC2)c(C#N)c(N)n1 (centres unmarked) [Example 2-54]
76 | < 1000 |  | CC(C)COc1cccc(O)c1-c1cc(C2CCCNC2)c(C#N)c(N)n1 (centres unmarked) [Example 2-59]
77 | < 1000 |  | N#Cc1c(CCN)cc(-c2c(O)cccc2OCc2ccccc2)nc1N [Example 2-40]
78 | < 1000 |  | N#Cc1c(C2CCCNC2)cc(-c2c(O)cccc2OCc2ncon2)nc1N (centres unmarked) [Example 2-48]
79 | < 1000 |  | CCCOc1cccc(O)c1-c1cc(C2CCNCC2)c(CO)c(N)n1 [Example 12-06]
80 | 1000 to 10000 |  | N#Cc1c(C2CCCNC2)cc(-c2c(O)cccc2OCc2ccc(Cl)cc2Cl)nc1N (centres unmarked) [Example 2-34]
